Converted amounts (≈) assume the structure as drawn. Non-standard residues stand in square brackets, D forms with d. Residues, ends and D or L forms follow the SMILES beside them. *: point of attachment. X1 = OCCNC[C@H](Cc1ccccc1)N*; Aib = CC(C)(N)C(=O)O
Key:
Type in all cases: functional
Enterococcus faecium = experiment: Antimicrobial activity against vancomycin-resistant Enterococcus faecium by broth dilution method
Staphylococcus aureus [1] = experiment: Antimicrobial activity against wild type Staphylococcus aureus by broth dilution method
Staphylococcus aureus [2] = experiment: Antimicrobial activity against methicillin-resistant Staphylococcus aureus by broth dilution method
Escherichia coli [3] = experiment: Antimicrobial activity against membrane permeability mutant Escherichia coli imp by broth dilution method
Candida albicans = experiment: Antimicrobial activity against Candida albicans by broth dilution method
Escherichia coli [4] = experiment: Antimicrobial activity against wild type Escherichia coli by broth dilution method

Compound	MIC (Enterococcus faecium) [µg/mL]	MIC (Staphylococcus aureus [1]) [µg/mL]	MIC (Staphylococcus aureus [2]) [µg/mL]	MIC (Escherichia coli [3]) [µg/mL]	MIC (Candida albicans) [µg/mL]	MIC (Escherichia coli [4]) [µg/mL]
CC(=O)NC(C)(C)C(=O)N1CCC[C@H]1C(=O)NC(C)(C)C(=O)N[C@@H](C)C(=O)NC(C)(C)C(=O)N[C@@H](C)C(=O)N[C@@H](CCC(N)=O)C(=O)NC(C)(C)C(=O)N[C@H](C(=O)NC(C)(C)C(=O)NCC(=O)N[C@@H](CC(C)C)C(=O)NC(C)(C)C(=O)N1CCC[C@H]1C(=O)N[C@H](C(=O)NC(C)(C)C(=O)NC(C)(C)C(=O)N[C@@H](CCC(=O)O)C(=O)N[C@@H](CCC(N)=O)C(=O)N[C@H](CNCCO)Cc1ccccc1)C(C)C)C(C)C [septocylindrin A] (Ac-[Aib]P[Aib]A[Aib]AQ[Aib]V[Aib]GL[Aib]PV[Aib][Aib]EQ-X1)	16 (≈ 7.97 µM)	32 (≈ 15.9 µM)	128 (≈ 63.8 µM)	32 (≈ 15.9 µM)	32 (≈ 15.9 µM)	> 128
CC(=O)NC(C)(C)C(=O)N1CCC[C@H]1C(=O)NC(C)(C)C(=O)N[C@@H](C)C(=O)NC(C)(C)C(=O)N[C@@H](C)C(=O)N[C@@H](CCC(N)=O)C(=O)NC(C)(C)C(=O)N[C@H](C(=O)NC(C)(C)C(=O)NCC(=O)N[C@@H](CC(C)C)C(=O)NC(C)(C)C(=O)N1CCC[C@H]1C(=O)N[C@H](C(=O)NC(C)(C)C(=O)NC(C)(C)C(=O)N[C@@H](CCC(N)=O)C(=O)N[C@@H](CCC(N)=O)C(=O)N[C@H](CNCCO)Cc1ccccc1)C(C)C)C(C)C [septocylindrin B] (Ac-[Aib]P[Aib]A[Aib]AQ[Aib]V[Aib]GL[Aib]PV[Aib][Aib]QQ-X1)	8 (≈ 3.99 µM)	8 (≈ 3.99 µM)	16 (≈ 7.97 µM)	8 (≈ 3.99 µM)	16 (≈ 7.97 µM)	> 128

Reference: ChEMBL document CHEMBL1142861, “Septocylindrins A and B: peptaibols produced by the terrestrial fungus Septocylindrium sp. LL-Z1518” (2007)
